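Compound exposure: 48 hours, 5 concentrations, 96-well plates. Abbreviation: GI50, concentration required for 50% inhibition of growth. TGI denotes the concentration required for complete inhibition of growth.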
Tests used:
Assay in all cases: NCI tumour cell line growth inhibition, 48 h
[1] = tested on: RPMI-8226 leukemia
[2] = tested on: SK-MEL-28 melanoma
[3] = tested on: HCT-116 colon
[4] = tested on: HCT-15 colon
[5] = tested on: HOP-62 NSCLC
[6] = tested on: SK-MEL-5 melanoma
[7] = tested on: UACC-62 melanoma
[8] = tested on: EKVX NSCLC
[9] = tested on: RXF 393 renal
[10] = tested on: HL-60(TB) leukemia

Compound	TGI [1]	TGI [2]	TGI [3]	TGI [4]	TGI [5]	TGI [6]	TGI [7]	TGI [8]	TGI [9]	TGI [10]	GI50 [2]	GI50 [4]	GI50 [5]	GI50 [6]	GI50 [7]	GI50 [8]	GI50 [9]	GI50 [1]	GI50 [3]	GI50 [10]
O=Cc1cccc2c1Oc1c(cccc1C(=O)O)S2	63.3 µM	> 100 µM	> 100 µM	> 100 µM	> 100 µM	> 100 µM	> 100 µM	> 100 µM	–	–	–	–	–	–	–	–	–	–	–	–
CCOC(=N)/C(=C1\OC(N)=C(c2ccc(Cl)cc2)C1=O)c1ccc(Cl)cc1	47.6 µM	31.7 µM	30.7 µM	–	43.6 µM	–	29 µM	32.7 µM	27.2 µM	42 µM	–	–	–	–	–	–	–	–	–	–
COc1ccc(/C=N\Nc2ccc([N+](=O)[O-])cn2)cc1OC	–	> 100 µM	–	> 100 µM	> 100 µM	> 100 µM	> 100 µM	> 100 µM	16.7 µM	–	> 100 µM	> 100 µM	10.5 µM	> 100 µM	> 100 µM	> 100 µM	3.65 µM	–	–	–
O=[N+]([O-])C1Cc2ccccc2OC1c1ccccc1 (centres undefined)	–	> 100 µM	> 100 µM	–	83.2 µM	> 100 µM	> 100 µM	> 100 µM	45.8 µM	> 100 µM	–	–	–	–	–	–	–	–	–	–
CCOc1cccc2ccc[n+](CC)c12	> 100 µM	> 100 µM	> 100 µM	–	> 100 µM	> 100 µM	> 100 µM	> 100 µM	> 100 µM	–	–	–	–	–	–	–	–	–	–	–
O=C(/C=C/c1ccccc1)n1c(-c2ccc(Cl)cc2)nc2ccccc21	3.82 µM	3.22 µM	2.88 µM	7.06 µM	5.17 µM	3.12 µM	2.88 µM	–	3.12 µM	4.88 µM	1.49 µM	1.34 µM	2.72 µM	1.64 µM	1.27 µM	–	1.32 µM	0.614 µM	1.21 µM	1.4 µM
CC(=O)[CH-]C(=O)c1ccccc1.CC(=O)[CH-]C(=O)c1ccccc1.CCOCC[O-].CCOCC[O-].[Ti+4]	58.7 µM	27.6 µM	35.6 µM	91.9 µM	85.8 µM	53.3 µM	37.8 µM	96.4 µM	–	45.4 µM	10.8 µM	28.3 µM	25.9 µM	22.5 µM	15.5 µM	38.4 µM	–	18 µM	17.3 µM	13.8 µM
COc1ccc2c(c1)CC[C@H](O)/C2=C/c1cc(OC)c(OC)c(OC)c1	> 51.3 µM	> 100 µM	> 100 µM	> 100 µM	> 100 µM	2.89 µM	> 100 µM	> 100 µM	–	0.86 µM	3.9 µM	0.0567 µM	0.0876 µM	0.0608 µM	0.0403 µM	1.21 µM	–	1.82 µM	0.104 µM	0.192 µM
CC(C)(C)C(=O)OC12/C(=N/O)CCCCCC1c1ccccc12 (centres undefined)	30.9 µM	32.8 µM	27.5 µM	33 µM	37 µM	31.7 µM	31.5 µM	–	33.9 µM	45.5 µM	–	–	–	–	–	–	–	–	–	–

— PubChem BioAssay (NCI)
